Source: patent US20040152674A1, “Pharmaceutically active compounds and methods of use thereof” (Trustees of Tufts College, priority 1998, published 2004)
Converted amounts (≈) assume the structure as drawn.

Legend:
E. faecalis ATCC9790 [1] = assay: MIC in L broth tubes (Example 10); format: cell-based; details: Enterococcus faecalis; E. faecalis ATCC9790, tetracycline sensitive; 17-18 hours, 37° C.; read-out: Minimum Inhibitory Concentration
Experimental: (§1) The inhibitory effects of compounds of the invention were examined relative to doxycycline using tetracycline-sensitive and tetracycline-resistant strains of E. coli, S. aureus, and E. faecalis as specified in the Tables below. The general protocol for performing these experiments was as follows: cultures were grown up fresh in L broth in the morning from an overnight culture. After 4-6 hours of growth, each bacterial culture was diluted to an A530 of 0.2-0.5 depending on the strain (E. coli, 0.5; S. aureus, 0.4; E. faecalis, 0.2). Individual tubes, containing 1 ml of L broth and different concentrations of the tested compound, were inoculated with the different bacterial cultures and then incubated at 37° C. After 17-18 hours of incubation, the concentration of the tested compound at which no observed cloudiness was seen was called the minimal inhibitory concentration (MIC). The results obtained are set forth in Tables 2 and 3 below, with the MIC values expressed in μg/ml and set forth in columns beneath the tested compound.

E. coli D31m4 [2] = assay: MIC in L broth tubes (Example 10); format: cell-based; details: Escherichia coli, D31M4, read-out: Minimum Inhibitory Concentration
Experimental: as §1

S. aureus 12715 (K) = assay: MIC in L broth tubes (Example 10); format: cell-based; details: Staphylococcus aureus, tetracycline resistant, 17-18 hours, 37° C., read-out: Minimum Inhibitory Concentration
Experimental: as §1

S. aureus RN450 [3] = assay: MIC in L broth tubes (Example 10); format: cell-based; details: Staphylococcus aureus; S. aureus RN450, tetracycline sensitive; 17-18 hours, 37° C.; read-out: Minimum Inhibitory Concentration
Experimental: as §1

VRE 19 = assay: MIC in L broth tubes (Example 10); format: cell-based; details: Enterococcus; VRE 19, tetracycline sensitive; read-out: Minimum Inhibitory Concentration
Experimental: as §1

E. faecalis pAM211 (L) = assay: MIC in L broth tubes (Example 10); format: cell-based; details: Enterococcus faecalis, read-out: Minimum Inhibitory Concentration
Experimental: as §1

VRE 11 = assay: MIC in L broth tubes (Example 10); format: cell-based; details: Enterococcus, read-out: Minimum Inhibitory Concentration
Experimental: as §1

E. coli D31m4(pHCM1) (B) = assay: MIC in L broth tubes (Example 10); format: cell-based; details: Escherichia coli, read-out: Minimum Inhibitory Concentration
Experimental: as §1

VRE 15 = assay: MIC in L broth tubes (Example 10); format: cell-based; details: Enterococcus, read-out: Minimum Inhibitory Concentration
Experimental: as §1

S. aureus RN4250 (K) = assay: MIC in L broth tubes (Example 10); format: cell-based; details: Staphylococcus aureus, read-out: Minimum Inhibitory Concentration
Experimental: as §1

VRE 17 = assay: MIC in L broth tubes (Example 10); format: cell-based; details: Enterococcus; VRE 17, tetracycline sensitive; read-out: Minimum Inhibitory Concentration
Experimental: as §1

MRSA 1 = assay: MIC in L broth tubes (Example 10); format: cell-based, S. aureus
Experimental: as §1

MRSA 3 = assay: MIC in L broth tubes (Example 10); format: cell-based, S. aureus; details: Staphylococcus aureus, read-out: Minimum Inhibitory Concentration
Experimental: as §1

E. faecalid pMV158 (L) = assay: MIC in L broth tubes (Example 10); format: cell-based, E. faecalis; details: Enterococcus faecalis, read-out: Minimum Inhibitory Concentration
Experimental: as §1

S. aureus ATCC12715 = assay: MIC by broth dilution method (Table 4); format: cell-based; design: unit not given here; details: S. aureus Tc^r ATCC12715; 18 hours
Experimental: (§2) The minimum inhibitory concentration, the lowest concentration of drug that inhibits bacterial growth at 18 hours at their appropriate temperature, is determined by the broth dilution method using L-broth or Muller-Hinton broth. The Muller-Hinton broth was cation-adjusted accordingly and all bacteriological methods were performed as was described by Waitz, J. A., National Commision for Clinical Laboratory Standards Document M7-A2, vol.10, no. 8, pp.13-20, 2nd edition, Villanova, Pa. (1990). The organisms tested represent gram-positive and gram-negative bacterial species that are susceptible to tetracyclines or are resistant to tetracyclines due to the ability to efflux tetracyclines or which confer resistance by ribosomal protection mechanisms. The clinical strains used are either susceptible to tetracyclines or are resistant to them by either drug efflux or ribosomal protection.

E. faecalis pMV158 = assay: MIC by broth dilution method (Table 4); format: cell-based; design: unit not given here; details: E. faecalis pMV158 Tc^r; 18 hours
Experimental: as §2

E. faecalis ATCC9790 [4] = assay: MIC by broth dilution method (Table 4); format: cell-based; design: unit not given here; details: E. faecalis Tc^r ATCC9790; 18 hours
Experimental: as §2

E. coli D31m4 [5] = assay: MIC by broth dilution method (Table 4); format: cell-based; design: unit not given here; details: E. coli D31m4* Tc^r, lipopolysaccharide-deficient mutant; 18 hours
Experimental: as §2

S. aureus RN4250 = assay: MIC by broth dilution method (Table 4); format: cell-based; design: unit not given here; details: S. aureus RN4250 Tc^r; 18 hours
Experimental: as §2

S. aureus MRSA5 = assay: MIC by broth dilution method (Table 4); format: cell-based; design: unit not given here; details: S. aureus MRSA5 Tc^r; 18 hours
Experimental: as §2

E. coli D31m4(pHCM1) = assay: MIC by broth dilution method (Table 4); format: cell-based; design: unit not given here; details: E. coli D31m4(pHCM1) Tcr; 18 hours
Experimental: as §2

S. aureus RN450 [6] = assay: MIC by broth dilution method (Table 4); format: cell-based; design: unit not given here; details: S. aureus RN450 Tc^s; 18 hours
Experimental: as §2

E. faecalis pAM211 = assay: MIC by broth dilution method (Table 4); format: cell-based; design: unit not given here; details: E. faecalis pAM211 Tc^r; 18 hours
Experimental: as §2

Row | SMILES | Antibacterial activity (minimum inhibitory concentration) (S. aureus ATCC12715) | Antibacterial activity (minimum inhibitory concentration) (E. faecalis pMV158) | Antibacterial activity (minimum inhibitory concentration) (E. faecalis ATCC9790 [4]) | Antibacterial activity (minimum inhibitory concentration) (E. coli D31m4 [5]) | Antibacterial activity (minimum inhibitory concentration) (S. aureus RN4250) | Antibacterial activity (minimum inhibitory concentration) (S. aureus MRSA5) | Antibacterial activity (minimum inhibitory concentration) (E. coli D31m4(pHCM1)) | Antibacterial activity (minimum inhibitory concentration) (S. aureus RN450 [6]) | Antibacterial activity (minimum inhibitory concentration) (E. faecalis pAM211) | further results
1 | C[C@H]1c2cccc(O)c2C(=O)C2=C(O)[C@]3(O)C(=O)C(C(N)=O)=C(O)[C@@H](N(C)C)C3[C@@H](O)C21 (stereo partly drawn) [Doxycycline, [4S-(4alpha,12aalpha)]-4-(dimethylamino)-1,4,4a,5,5a,6,11,12a-octahydro-3,5,10,12,12a-pentahydroxy-6-methyl-1,11-dioxo-2-naphthacenecarboxamide, reference compound] | 50 | 6.25 | 0.39 | 0.78 | 25 | 6.25 | 12.5 | 0.195 | 12.5 | MIC (E. faecalis ATCC9790 [1]): < 0.78 µg/mL; MIC (E. coli D31m4 [2]): < 0.78 µg/mL; MIC (S. aureus 12715 (K)): 25 µg/mL (≈ 56.3 µM); MIC (S. aureus RN450 [3]): < 0.78 µg/mL; MIC (VRE 19): ≤ 1.56 µg/mL; MIC (E. faecalis pAM211 (L)): 12.5 µg/mL (≈ 28.1 µM); MIC (VRE 11): 12.5 µg/mL (≈ 28.1 µM); MIC (E. coli D31m4(pHCM1) (B)): 12.5 µg/mL (≈ 28.1 µM); MIC (VRE 15): 12.5 µg/mL (≈ 28.1 µM); MIC (S. aureus RN4250 (K)): 12.5 µg/mL (≈ 28.1 µM); MIC (VRE 17): ≤ 1.56 µg/mL; Minimum Inhibitory Concentration (MRSA 1; MRSA 1, listed under Tetracycline Sensitive Bacteria): 6.25 µg/mL; MIC (MRSA 1; Staphylococcus aureus, MRSA, read-out: Minimum Inhibitory Concentration): 6.25 µg/mL (≈ 14.1 µM); MIC (MRSA 3): 6.25 µg/mL (≈ 14.1 µM); MIC (E. faecalid pMV158 (L)): 12.5 µg/mL (≈ 28.1 µM)
2 | CC(=O)OC1C2C(=C(O)C3(O)C(=O)C(C(N)=O)=C(O)C(N(C)C)C13)C(=O)c1c(ccc(C(C)(C)C)c1O)C2C (stereo not drawn) [C, [4S-(4alpha,12aalpha)]-9-(tert-butyl)-4-(dimethylamino)-5-acetylcarbonyloxy-1,4,4a,5,5a,6,11,12a-octahydro-3,10,12,12a-tetrahydroxy-6-methyl-1,11-dioxo-2-naphthacenecarboxamide] | 0.78 | 0.39 | 0.78 | 3.12 | 0.39 | 1.56 | 3.12 | 0.39 | 0.78 | –
3 | CC(=O)OC(CCC(C)C)c1ccc2c(c1O)C(=O)C1=C(O)C3(O)C(=O)C(C(N)=O)=C(O)C(N(C)C)C3C(O)C1C2C (stereo not drawn) [Compound N, [4S-(4alpha,12aalpha)]-9-[4′-(1′-acetoxy-4′-methyl)pentyl]-4-(dimethylamino)-1,4,4a,5,5a,6,11,12a-octahydro-3,5,10,12,12a-pentahydroxy-6-methyl-1,11-dioxo-2-naphthacenecarboxamide] | 1.56 | 0.78 | 1.56 | 3.12 | 1.56 | 1.56 | 3.12 | 1.56 | 1.56 | –
4 | CCCC(C)(C)c1ccc2c(c1O)C(=O)C1=C(O)[C@]3(O)C(=O)C(C(N)=O)=C(O)[C@@H](N(C)C)C3C(O)C1C2C (stereo partly drawn) [H, [4S-(4alpha,12aalpha)]-9-[2′-(2′-methyl)pentyl]-4-(dimethylamino)-1,4,4a,5,5a,6,11,12a-octahydro-3,5,10,12,12a-pentahydroxy-6-methyl-1,11-dioxo-2-naphthacenecarboxamide] | 0.78 | 0.78 | 0.78 | 50 | 0.39 | 0.39 | 1.56 | 0.08 | 0.78 | –
